Laboratory results published in ChEMBL document CHEMBL3112568, “Synthesis, antifungal activities and molecular docking studies of novel 2-(2,4-difluorophenyl)-2-hydroxy-3-(1H-1,2,4-triazol-1-yl)propyl dithiocarbamates” (2014).
≈ marks a conversion by molar mass, not a printed value.

How the values were obtained:
Format in all cases: functional
[1] = tested on: Nannizzia gypsea; experiment: Antifungal activity against Microsporum gypseum by micro-broth dilution method
[2] = tested on: Trichophyton rubrum; experiment: Antifungal activity against Trichophyton rubrum by micro-broth dilution method
[3] = tested on: Nakaseomyces glabratus; experiment: Antifungal activity against Candida glabrata by micro-broth dilution method
[4] = tested on: Aspergillus fumigatus; experiment: Antifungal activity against Aspergillus fumigatus by micro-broth dilution method
[5] = tested on: Candida parapsilosis; experiment: Antifungal activity against Candida parapsilosis by micro-broth dilution method; conditions: Lodderomyces parapsilosis
[6] = tested on: Cryptococcus neoformans; experiment: Antifungal activity against Cryptococcus neoformans after 72 hrs by micro-broth dilution method
[7] = tested on: Candida albicans; experiment: Antifungal activity against Candida albicans SC5314 after 24 hrs by micro-broth dilution method; conditions: SC5314, 24 h
[8] = tested on: Candida albicans; experiment: Antifungal activity against Candida albicans Y0109 after 24 hrs by micro-broth dilution method; conditions: Y0109, 24 h

SMILES	MIC80 [1] [µg/mL]	MIC80 [2] [µg/mL]	MIC80 [3] [µg/mL]	MIC80 [4] [µg/mL]	MIC80 [5] [µg/mL]	MIC80 [6] [µg/mL]	MIC80 [7] [µg/mL]	MIC80 [8] [µg/mL]
OC(CSC(=S)N1CCN(c2ccccc2Cl)CC1)(Cn1cncn1)c1ccc(F)cc1F (racemic)	2 (≈ 3.92 µM)	1 (≈ 1.96 µM)	0.5 (≈ 0.98 µM)	8 (≈ 15.7 µM)	0.5 (≈ 0.98 µM)	≤ 0.125	≤ 0.125	≤ 0.125
CNC(=S)SCC(O)(Cn1cncn1)c1ccc(F)cc1F (racemic)	> 64	4 (≈ 11.6 µM)	2 (≈ 5.81 µM)	> 64	> 64	64 (≈ 186 µM)	1 (≈ 2.9 µM)	1 (≈ 2.9 µM)
OC(CSC(=S)N1CCN(c2ccccc2F)CC1)(Cn1cncn1)c1ccc(F)cc1F (racemic)	> 64	1 (≈ 2.03 µM)	0.5 (≈ 1.01 µM)	> 64	2 (≈ 4.05 µM)	0.5 (≈ 1.01 µM)	0.5 (≈ 1.01 µM)	0.5 (≈ 1.01 µM)
CN(C(=S)SCC(O)(Cn1cncn1)c1ccc(F)cc1F)c1ccccc1 (racemic)	2 (≈ 4.76 µM)	2 (≈ 4.76 µM)	0.5 (≈ 1.19 µM)	64 (≈ 152 µM)	32 (≈ 76.1 µM)	1 (≈ 2.38 µM)	0.5 (≈ 1.19 µM)	0.25 (≈ 0.595 µM)
CN(C/C=C/C#CC(C)(C)C)Cc1cccc2ccccc12 [TERBINAFINE]	0.0625 (≈ 0.214 µM)	0.0625 (≈ 0.214 µM)	2 (≈ 6.86 µM)	0.25 (≈ 0.858 µM)	1 (≈ 3.43 µM)	0.25 (≈ 0.858 µM)	4 (≈ 13.7 µM)	16 (≈ 54.9 µM)
OC(CSC(=S)N1CCN(c2cccc(Cl)c2Cl)CC1)(Cn1cncn1)c1ccc(F)cc1F (racemic)	16 (≈ 29.4 µM)	0.5 (≈ 0.918 µM)	0.5 (≈ 0.918 µM)	> 64	1 (≈ 1.84 µM)	0.5 (≈ 0.918 µM)	0.5 (≈ 0.918 µM)	≤ 0.125
Cc1cccc(N2CCN(C(=S)SCC(O)(Cn3cncn3)c3ccc(F)cc3F)CC2)c1C (racemic)	> 64	1 (≈ 1.99 µM)	0.5 (≈ 0.993 µM)	> 64	1 (≈ 1.99 µM)	0.5 (≈ 0.993 µM)	0.5 (≈ 0.993 µM)	0.5 (≈ 0.993 µM)
OC(CSC(=S)N1CCOCC1)(Cn1cncn1)c1ccc(F)cc1F (racemic)	8 (≈ 20 µM)	8 (≈ 20 µM)	≤ 0.125	16 (≈ 40 µM)	0.25 (≈ 0.624 µM)	0.25 (≈ 0.624 µM)	≤ 0.125	≤ 0.125
CN(CCO)C(=S)SCC(O)(Cn1cncn1)c1ccc(F)cc1F (racemic)	16 (≈ 41.2 µM)	4 (≈ 10.3 µM)	≤ 0.125	> 64	≤ 0.125	8 (≈ 20.6 µM)	≤ 0.125	≤ 0.125
COc1ccc(N2CCN(C(=S)SCC(O)(Cn3cncn3)c3ccc(F)cc3F)CC2)cc1 (racemic)	2 (≈ 3.96 µM)	1 (≈ 1.98 µM)	≤ 0.125	8 (≈ 15.8 µM)	0.25 (≈ 0.494 µM)	0.25 (≈ 0.494 µM)	≤ 0.125	≤ 0.125
CCC(C)n1ncn(-c2ccc(N3CCN(c4ccc(OCC5COC(Cn6cncn6)(c6ccc(Cl)cc6Cl)O5)cc4)CC3)cc2)c1=O (stereo unspecified) [ITRACONAZOLE]	4 (≈ 5.67 µM)	4 (≈ 5.67 µM)	1 (≈ 1.42 µM)	8 (≈ 11.3 µM)	8 (≈ 11.3 µM)	4 (≈ 5.67 µM)	4 (≈ 5.67 µM)	8 (≈ 11.3 µM)
OC(CSC(=S)N1CCN(c2ccccc2)CC1)(Cn1cncn1)c1ccc(F)cc1F (racemic)	2 (≈ 4.21 µM)	2 (≈ 4.21 µM)	≤ 0.125	4 (≈ 8.41 µM)	0.25 (≈ 0.526 µM)	≤ 0.125	0.25 (≈ 0.526 µM)	0.25 (≈ 0.526 µM)
OC(CSC(=S)NC1CCCCC1)(Cn1cncn1)c1ccc(F)cc1F (racemic)	> 64	64 (≈ 155 µM)	4 (≈ 9.7 µM)	> 64	64 (≈ 155 µM)	16 (≈ 38.8 µM)	0.25 (≈ 0.606 µM)	0.25 (≈ 0.606 µM)
OC(Cn1cncn1)(Cn1cncn1)c1ccc(F)cc1F [FLUCONAZOLE]	32 (≈ 104 µM)	4 (≈ 13.1 µM)	2 (≈ 6.53 µM)	> 64	2 (≈ 6.53 µM)	1 (≈ 3.27 µM)	0.25 (≈ 0.816 µM)	0.25 (≈ 0.816 µM)
CCCCNC(=S)SCC(O)(Cn1cncn1)c1ccc(F)cc1F (racemic)	> 64	> 64	16 (≈ 41.4 µM)	> 64	0.25 (≈ 0.647 µM)	64 (≈ 166 µM)	0.5 (≈ 1.29 µM)	0.5 (≈ 1.29 µM)
OC(CSC(=S)NCc1ccccc1)(Cn1cncn1)c1ccc(F)cc1F (racemic)	32 (≈ 76.1 µM)	0.5 (≈ 1.19 µM)	8 (≈ 19 µM)	> 64	8 (≈ 19 µM)	16 (≈ 38 µM)	0.5 (≈ 1.19 µM)	1 (≈ 2.38 µM)
CN(C)C(=S)SCC(O)(Cn1cncn1)c1ccc(F)cc1F (racemic)	2 (≈ 5.58 µM)	0.5 (≈ 1.39 µM)	≤ 0.125	8 (≈ 22.3 µM)	0.5 (≈ 1.39 µM)	0.5 (≈ 1.39 µM)	≤ 0.125	≤ 0.125
